# Data reported in ChEMBL document CHEMBL1201862, “PubChem BioAssay data set” (2004).
# The source made the active and inactive calls.
# Tests used:
# ORF 73 = ORF 73 (Human herpesvirus 8, UniProt O40947); test: inhibitors of C-LANA binding to LBS DNA, dose response, biochemical, fluorescence polarization, cherry-picked samples (AID 504725); design: species or system Human gammaherpesvirus 8;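 further: fluorescence polarization of a labeled DNA duplex reporting LANA DNA binding; potency is for inhibitors that block LANA binding to the DNA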
# [1] = biological target: T1, Sentrin-specific protease 8 (Homo sapiens, UniProt Q96LD8); type: functional;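 further: luminescence read-out of SENP8 inhibition, dose-response confirmation following an ultra-high-throughput screen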
# T1 sequence (Q96LD8 whole entry): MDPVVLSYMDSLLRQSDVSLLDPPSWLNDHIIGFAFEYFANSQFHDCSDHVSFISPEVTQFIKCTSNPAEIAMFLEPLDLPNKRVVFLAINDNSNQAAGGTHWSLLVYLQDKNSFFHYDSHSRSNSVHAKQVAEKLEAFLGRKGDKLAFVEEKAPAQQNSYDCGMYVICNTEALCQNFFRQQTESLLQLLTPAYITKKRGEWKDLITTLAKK
# Hexokinase HKDC1 = biological target: T2, Hexokinase HKDC1 (Homo sapiens, UniProt Q2TB90); test: HKDC1 hexokinase inhibitors, dose response, biochemical, W721R variant (AID 504729); type: functional
# T2 sequence (Q2TB90 whole entry): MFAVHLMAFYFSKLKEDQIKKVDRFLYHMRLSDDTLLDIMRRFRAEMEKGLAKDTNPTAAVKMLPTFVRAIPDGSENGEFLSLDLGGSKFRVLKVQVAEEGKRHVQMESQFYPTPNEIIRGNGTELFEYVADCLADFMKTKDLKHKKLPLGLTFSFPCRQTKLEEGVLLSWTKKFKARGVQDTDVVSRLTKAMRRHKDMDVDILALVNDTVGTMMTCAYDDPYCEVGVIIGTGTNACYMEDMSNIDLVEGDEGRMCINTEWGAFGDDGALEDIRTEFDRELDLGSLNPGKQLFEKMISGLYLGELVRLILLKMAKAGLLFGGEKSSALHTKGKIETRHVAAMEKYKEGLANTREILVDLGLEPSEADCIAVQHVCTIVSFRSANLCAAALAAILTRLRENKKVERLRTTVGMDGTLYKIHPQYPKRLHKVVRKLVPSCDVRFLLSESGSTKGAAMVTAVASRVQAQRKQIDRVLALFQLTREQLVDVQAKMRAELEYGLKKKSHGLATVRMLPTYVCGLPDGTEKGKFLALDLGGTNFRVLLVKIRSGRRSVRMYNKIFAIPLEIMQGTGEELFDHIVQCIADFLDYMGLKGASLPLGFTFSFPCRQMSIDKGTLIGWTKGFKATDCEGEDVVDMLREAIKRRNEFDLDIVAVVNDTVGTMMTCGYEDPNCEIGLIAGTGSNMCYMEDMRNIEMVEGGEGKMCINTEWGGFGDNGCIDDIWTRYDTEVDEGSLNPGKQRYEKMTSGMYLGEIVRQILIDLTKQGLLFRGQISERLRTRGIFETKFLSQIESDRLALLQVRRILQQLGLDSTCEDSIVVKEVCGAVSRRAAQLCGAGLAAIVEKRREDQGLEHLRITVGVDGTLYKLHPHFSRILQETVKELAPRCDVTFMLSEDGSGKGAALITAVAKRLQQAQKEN
# [2] = biological target: T3, Endoribonuclease toxin MazF (Escherichia coli K-12, UniProt P0AE70); test: fluorescent RNA oligo signal without MazF, dose response, counter-screen for MazEF activator project, biochemical, fluorescence, single-stranded RNase substrate (AID 588502); type: functional
# T3 sequence (P0AE70 whole entry): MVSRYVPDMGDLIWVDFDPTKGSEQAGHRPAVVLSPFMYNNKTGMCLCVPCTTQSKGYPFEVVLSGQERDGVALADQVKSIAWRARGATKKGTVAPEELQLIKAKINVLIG
# [3] = biological target: Glutathione-S-transferase (Schistosoma japonicum, UniProt Q26513); test: biotin-GST/anti-GST TR-FRET signal inhibitors, dose response, artefact control for Vif-APOBEC3G degradation inhibitor project, biochemical (AID 1117362); type: functional
# Glutathione-S-transferase, sequence (Q26513 whole entry): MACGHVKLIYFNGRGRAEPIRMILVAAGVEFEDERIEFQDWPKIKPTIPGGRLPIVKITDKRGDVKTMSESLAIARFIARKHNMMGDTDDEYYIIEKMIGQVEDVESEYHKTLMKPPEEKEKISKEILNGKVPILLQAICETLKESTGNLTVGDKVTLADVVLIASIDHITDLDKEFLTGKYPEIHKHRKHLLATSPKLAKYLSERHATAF
# [4] = biological target: T4, Tyrosine-protein phosphatase non-receptor type 7 (Homo sapiens, UniProt P35236); type: functional
# T4 sequence (P35236 whole entry): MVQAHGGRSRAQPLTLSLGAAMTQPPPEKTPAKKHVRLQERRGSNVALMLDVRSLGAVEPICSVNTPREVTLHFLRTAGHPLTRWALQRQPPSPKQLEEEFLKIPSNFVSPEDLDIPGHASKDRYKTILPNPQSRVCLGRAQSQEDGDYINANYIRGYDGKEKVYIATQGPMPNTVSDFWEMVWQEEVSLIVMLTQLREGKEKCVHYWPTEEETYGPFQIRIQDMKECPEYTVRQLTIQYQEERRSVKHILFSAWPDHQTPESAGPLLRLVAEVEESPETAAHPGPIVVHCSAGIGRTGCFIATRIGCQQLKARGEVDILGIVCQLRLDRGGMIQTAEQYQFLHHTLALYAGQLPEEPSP
# [5] = inhibitors of SNCA 5'UTR-driven reporter translation, confirmation, H4 neuroglioma cells, luminescence (AID 1988); type: functional, cell-based
# [6] = biological target: Peroxisome proliferator-activated receptor gamma/Nuclear receptor corepressor 2 (Homo sapiens, UniProt P37231+Q9Y618); type: functional
# Peroxisome proliferator-activated receptor gamma/Nuclear receptor corepressor 2, sequence (P37231 whole entry): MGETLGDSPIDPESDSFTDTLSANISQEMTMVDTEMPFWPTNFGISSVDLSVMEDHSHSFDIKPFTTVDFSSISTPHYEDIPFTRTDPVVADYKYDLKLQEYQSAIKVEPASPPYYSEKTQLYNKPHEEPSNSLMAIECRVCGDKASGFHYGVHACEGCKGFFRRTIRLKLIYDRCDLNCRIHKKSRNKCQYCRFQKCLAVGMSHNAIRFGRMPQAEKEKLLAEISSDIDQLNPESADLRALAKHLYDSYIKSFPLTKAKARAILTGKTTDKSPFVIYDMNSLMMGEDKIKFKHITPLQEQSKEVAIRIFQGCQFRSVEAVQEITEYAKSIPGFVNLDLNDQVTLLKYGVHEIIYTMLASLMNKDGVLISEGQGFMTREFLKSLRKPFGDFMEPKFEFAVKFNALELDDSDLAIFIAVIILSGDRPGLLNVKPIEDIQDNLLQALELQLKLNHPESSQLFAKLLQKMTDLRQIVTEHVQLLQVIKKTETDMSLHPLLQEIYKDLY
# Peroxisome proliferator-activated receptor gamma/Nuclear receptor corepressor 2, sequence (Q9Y618 whole entry): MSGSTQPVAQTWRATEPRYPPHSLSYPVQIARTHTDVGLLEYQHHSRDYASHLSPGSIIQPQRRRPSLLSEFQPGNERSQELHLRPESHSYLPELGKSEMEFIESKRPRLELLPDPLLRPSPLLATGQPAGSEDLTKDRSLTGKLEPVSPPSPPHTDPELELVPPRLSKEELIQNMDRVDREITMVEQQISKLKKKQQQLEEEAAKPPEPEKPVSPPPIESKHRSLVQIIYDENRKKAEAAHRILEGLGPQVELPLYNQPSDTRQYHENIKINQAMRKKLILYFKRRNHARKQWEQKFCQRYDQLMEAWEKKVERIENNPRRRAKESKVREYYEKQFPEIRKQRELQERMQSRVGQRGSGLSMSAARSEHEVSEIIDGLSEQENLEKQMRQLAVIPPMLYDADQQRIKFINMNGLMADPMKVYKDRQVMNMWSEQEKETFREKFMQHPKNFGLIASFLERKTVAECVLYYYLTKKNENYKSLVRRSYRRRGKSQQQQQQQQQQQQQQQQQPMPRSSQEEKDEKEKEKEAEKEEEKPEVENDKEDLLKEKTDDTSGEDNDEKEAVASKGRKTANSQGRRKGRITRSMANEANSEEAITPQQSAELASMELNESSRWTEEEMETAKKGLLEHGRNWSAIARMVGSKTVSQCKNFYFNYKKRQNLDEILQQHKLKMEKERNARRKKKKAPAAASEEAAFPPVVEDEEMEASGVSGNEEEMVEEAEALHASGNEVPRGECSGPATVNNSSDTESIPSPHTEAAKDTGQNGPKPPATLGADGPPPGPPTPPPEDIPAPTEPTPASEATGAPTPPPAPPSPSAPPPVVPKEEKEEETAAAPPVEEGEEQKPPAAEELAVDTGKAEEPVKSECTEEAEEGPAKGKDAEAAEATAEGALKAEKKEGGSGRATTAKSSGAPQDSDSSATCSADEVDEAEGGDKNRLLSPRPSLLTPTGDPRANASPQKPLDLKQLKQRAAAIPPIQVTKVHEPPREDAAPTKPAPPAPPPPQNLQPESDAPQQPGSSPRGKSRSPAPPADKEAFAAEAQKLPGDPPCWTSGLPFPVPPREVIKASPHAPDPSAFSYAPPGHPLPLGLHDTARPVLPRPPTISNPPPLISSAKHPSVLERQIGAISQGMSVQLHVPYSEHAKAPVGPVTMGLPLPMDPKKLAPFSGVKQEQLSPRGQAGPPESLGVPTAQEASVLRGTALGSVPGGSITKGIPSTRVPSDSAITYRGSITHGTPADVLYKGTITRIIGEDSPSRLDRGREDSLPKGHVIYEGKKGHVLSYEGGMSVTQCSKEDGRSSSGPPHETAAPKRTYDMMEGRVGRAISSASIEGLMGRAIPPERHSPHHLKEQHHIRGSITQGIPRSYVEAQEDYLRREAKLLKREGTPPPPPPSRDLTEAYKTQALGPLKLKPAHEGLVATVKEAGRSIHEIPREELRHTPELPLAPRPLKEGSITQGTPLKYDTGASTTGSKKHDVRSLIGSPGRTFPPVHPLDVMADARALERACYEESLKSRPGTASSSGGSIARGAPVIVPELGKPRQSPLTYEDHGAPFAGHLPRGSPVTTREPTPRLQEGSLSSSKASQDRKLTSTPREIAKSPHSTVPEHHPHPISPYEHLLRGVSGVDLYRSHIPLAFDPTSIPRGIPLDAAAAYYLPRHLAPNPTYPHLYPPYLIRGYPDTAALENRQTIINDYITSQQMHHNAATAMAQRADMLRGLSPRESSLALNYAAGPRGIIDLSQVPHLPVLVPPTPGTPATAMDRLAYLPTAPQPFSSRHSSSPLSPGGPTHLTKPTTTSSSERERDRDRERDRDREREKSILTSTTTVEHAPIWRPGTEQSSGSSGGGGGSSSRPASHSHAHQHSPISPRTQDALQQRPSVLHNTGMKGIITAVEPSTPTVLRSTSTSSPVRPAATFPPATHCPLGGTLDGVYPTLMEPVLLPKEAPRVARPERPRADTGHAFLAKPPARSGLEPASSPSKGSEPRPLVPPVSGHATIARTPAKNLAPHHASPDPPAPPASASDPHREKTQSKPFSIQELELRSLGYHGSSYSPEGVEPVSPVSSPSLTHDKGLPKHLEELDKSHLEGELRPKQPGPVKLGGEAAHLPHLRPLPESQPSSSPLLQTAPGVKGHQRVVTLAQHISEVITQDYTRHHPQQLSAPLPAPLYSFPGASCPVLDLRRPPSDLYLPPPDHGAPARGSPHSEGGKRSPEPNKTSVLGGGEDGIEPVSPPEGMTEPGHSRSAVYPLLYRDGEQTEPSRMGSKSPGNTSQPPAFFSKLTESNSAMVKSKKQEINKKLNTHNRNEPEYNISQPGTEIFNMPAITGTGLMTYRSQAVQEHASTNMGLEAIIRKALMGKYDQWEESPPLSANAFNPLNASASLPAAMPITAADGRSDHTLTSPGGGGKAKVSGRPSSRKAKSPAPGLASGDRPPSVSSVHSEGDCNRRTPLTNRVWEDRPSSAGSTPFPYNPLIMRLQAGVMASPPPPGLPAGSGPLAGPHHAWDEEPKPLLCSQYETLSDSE
# [7] = biological target: Transitional endoplasmic reticulum ATPase (Homo sapiens, UniProt P55072); test: p97 ATPase inhibitors, dose response, biochemical (AID 1534)
# Transitional endoplasmic reticulum ATPase, sequence (P55072 whole entry): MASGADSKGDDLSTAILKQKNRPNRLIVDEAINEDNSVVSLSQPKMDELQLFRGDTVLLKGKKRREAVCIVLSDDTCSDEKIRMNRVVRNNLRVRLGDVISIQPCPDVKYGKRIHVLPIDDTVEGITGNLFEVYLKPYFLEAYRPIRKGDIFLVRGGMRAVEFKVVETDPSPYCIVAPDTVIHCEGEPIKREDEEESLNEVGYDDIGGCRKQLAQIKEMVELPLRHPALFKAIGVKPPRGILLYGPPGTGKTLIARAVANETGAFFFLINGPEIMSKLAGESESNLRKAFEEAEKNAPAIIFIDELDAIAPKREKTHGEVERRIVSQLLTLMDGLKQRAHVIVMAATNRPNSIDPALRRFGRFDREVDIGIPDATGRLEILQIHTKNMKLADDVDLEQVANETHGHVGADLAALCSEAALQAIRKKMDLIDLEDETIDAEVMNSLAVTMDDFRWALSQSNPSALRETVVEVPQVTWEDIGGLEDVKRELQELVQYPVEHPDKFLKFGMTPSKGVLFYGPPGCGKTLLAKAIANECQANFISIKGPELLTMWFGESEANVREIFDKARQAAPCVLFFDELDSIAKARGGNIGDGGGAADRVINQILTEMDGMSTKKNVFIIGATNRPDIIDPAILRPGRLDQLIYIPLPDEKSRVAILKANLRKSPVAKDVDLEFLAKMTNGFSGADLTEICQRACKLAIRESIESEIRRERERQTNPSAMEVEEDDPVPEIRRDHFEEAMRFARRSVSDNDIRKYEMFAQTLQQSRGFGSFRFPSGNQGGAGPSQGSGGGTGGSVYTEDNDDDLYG
# Streptococcus = test: Group A Streptococcus viability loss, dose response, counter-screen for streptokinase expression inhibitor project, luminescence, BacTiterGlo (AID 1915); type: functional, organism-based;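 further: potency for reduction of bacterial viability or growth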
# [8] = biological target: T5, Mannose-6-phosphate isomerase (Homo sapiens, UniProt P34949); test: human PMI inhibitors, high substrate, primary screen, biochemical, fluorescence intensity, high mannose 6-phosphate (AID 1220)
# T5 sequence (P34949 whole entry): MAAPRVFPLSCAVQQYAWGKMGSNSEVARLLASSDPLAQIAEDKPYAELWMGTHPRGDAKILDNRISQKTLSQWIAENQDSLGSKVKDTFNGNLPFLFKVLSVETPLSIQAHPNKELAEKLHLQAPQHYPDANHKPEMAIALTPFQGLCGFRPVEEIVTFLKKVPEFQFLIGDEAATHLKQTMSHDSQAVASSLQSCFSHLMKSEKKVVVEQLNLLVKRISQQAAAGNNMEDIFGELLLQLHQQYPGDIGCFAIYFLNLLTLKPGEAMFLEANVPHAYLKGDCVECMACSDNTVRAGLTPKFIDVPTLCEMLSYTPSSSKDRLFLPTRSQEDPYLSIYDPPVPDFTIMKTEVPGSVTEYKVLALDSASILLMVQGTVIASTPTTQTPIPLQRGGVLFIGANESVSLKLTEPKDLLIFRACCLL
# [9] = Vero E6 cell cytotoxicity, dose response, cytotoxicity control for non-replicating M. tuberculosis project, secondary assay (AID 492998); type: functional, VeroE6; details: Vero C1008
# Phospholipase A2 = Phospholipase A2 (Homo sapiens, UniProt P04054); type: functional;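 further: confirmatory dose-response counterscreen on phospholipase A2, testing hits that came from an ultra-high-throughput screen for ATG4B inhibitors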
# Phospholipase A2, sequence (P04054 whole entry): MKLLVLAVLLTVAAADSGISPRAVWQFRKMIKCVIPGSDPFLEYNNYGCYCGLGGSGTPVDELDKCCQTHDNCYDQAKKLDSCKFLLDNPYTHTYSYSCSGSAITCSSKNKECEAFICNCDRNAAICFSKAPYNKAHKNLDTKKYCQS
# [10] = biological target: Dual specificity tyrosine-phosphorylation-regulated kinase 1A (Rattus norvegicus, UniProt Q63470); type: biochemical, Homo sapiens
# [11] = biological target: Mitochondrial peptide methionine sulfoxide reductase (Bos taurus, UniProt P54149); test: Absorbance-based biochemical high throughput dose response assay for activators of Methionine sulfoxide reductase A (MsrA).; type: functional
# Mitochondrial peptide methionine sulfoxide reductase, sequence (P54149 whole entry): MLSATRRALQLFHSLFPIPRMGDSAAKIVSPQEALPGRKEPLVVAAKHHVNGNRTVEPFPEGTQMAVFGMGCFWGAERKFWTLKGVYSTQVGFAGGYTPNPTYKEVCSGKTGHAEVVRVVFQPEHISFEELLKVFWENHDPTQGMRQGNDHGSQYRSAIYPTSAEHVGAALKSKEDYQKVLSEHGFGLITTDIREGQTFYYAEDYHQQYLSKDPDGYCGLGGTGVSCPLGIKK
compound,measurement,setting,value
O=C(CCN1C(=O)/C(=C\c2ccco2)SC1=S)Nc1ccc(C(=O)O)c(O)c1,AC50,ORF 73,94.6 µM (active)
Oc1nc(Nc2ccccc2Cl)cc2ccccc12,IC50,[1],4.23 µM (active)
O=C1C=C(c2c(O)ccc3ccccc23)c2ccccc2C1=O,IC50,Hexokinase HKDC1,2.47 µM (active)
same,EC50,[2],> 99 µM (inactive)
same,IC50,[3],> 100 µM (active)
Cc1nc2c(=O)n(C)c(=O)nc-2n(C)n1,IC50,[4],< 1.24 µM (active)
same,EC50,[5],0.136 µM (active)
same,IC50,[6],> 39.8 µM (not active)
same,IC50,[7],> 50 µM (not active)
same,EC50,Streptococcus,9.31 µM (active)
same,IC50,[8],6.09 µM (active)
same,CC50,[9],4.51 µM (active)
same,IC50,Phospholipase A2,> 80 µM (inactive)
same,AC50,[10],0.215 µM (active)
same,EC50,[11],63.7 µM (inactive)
